# What was measured:
# [1] = biological target: T1, cystic fibrosis transmembrane conductance regulator (ΔR-CFTR) (Homo sapiens, UniProt P13569, DEL634-836); assay: excised inside-out patch-clamp; assay type: biochemical
# [2] = biological target: T1, cystic fibrosis transmembrane conductance regulator (ΔR-CFTR); assay: excised inside-out patch-clamp, single-channel Po versus [ATP]; assay type: biochemical
# T1 sequence (P13569 1-633, stated change not applied): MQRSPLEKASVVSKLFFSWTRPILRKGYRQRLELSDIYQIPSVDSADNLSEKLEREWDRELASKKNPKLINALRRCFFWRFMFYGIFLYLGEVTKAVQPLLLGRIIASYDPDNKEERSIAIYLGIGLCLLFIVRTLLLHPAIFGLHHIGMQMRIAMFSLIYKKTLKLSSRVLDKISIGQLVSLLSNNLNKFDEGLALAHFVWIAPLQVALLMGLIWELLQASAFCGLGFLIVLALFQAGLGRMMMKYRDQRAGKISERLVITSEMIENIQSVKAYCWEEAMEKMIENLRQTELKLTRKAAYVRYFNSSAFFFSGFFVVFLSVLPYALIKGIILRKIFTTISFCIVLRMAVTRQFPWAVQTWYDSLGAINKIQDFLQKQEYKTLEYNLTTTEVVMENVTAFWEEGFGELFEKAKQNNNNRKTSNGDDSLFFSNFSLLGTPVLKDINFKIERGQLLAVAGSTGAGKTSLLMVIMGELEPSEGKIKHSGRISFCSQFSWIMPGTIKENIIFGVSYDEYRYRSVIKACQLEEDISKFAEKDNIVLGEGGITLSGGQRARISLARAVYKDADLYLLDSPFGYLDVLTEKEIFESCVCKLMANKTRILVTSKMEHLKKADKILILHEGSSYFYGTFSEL
# T1 sequence (P13569 837-1480, stated change not applied): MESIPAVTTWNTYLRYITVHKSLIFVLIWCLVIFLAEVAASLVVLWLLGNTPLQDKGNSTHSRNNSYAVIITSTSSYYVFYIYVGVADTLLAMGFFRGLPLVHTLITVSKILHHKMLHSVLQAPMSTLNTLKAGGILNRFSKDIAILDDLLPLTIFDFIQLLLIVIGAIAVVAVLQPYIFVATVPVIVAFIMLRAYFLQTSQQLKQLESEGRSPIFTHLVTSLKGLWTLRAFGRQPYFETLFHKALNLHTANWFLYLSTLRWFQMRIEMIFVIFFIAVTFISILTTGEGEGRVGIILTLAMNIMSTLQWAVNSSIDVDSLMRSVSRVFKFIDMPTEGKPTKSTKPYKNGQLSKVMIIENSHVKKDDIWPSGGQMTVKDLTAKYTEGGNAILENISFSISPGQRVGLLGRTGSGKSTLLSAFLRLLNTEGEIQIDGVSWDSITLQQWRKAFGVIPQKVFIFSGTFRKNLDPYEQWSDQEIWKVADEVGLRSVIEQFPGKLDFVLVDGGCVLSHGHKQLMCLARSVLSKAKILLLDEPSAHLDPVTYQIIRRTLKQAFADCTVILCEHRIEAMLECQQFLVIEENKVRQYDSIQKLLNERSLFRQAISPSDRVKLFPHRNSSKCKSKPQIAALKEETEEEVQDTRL
SMILES,Ki [1],EC50 [2]
Nc1ncnc2c1ncn2[C@@H]1O[C@H](COP(=O)(O)OP(=O)(O)O)[C@@H](O)[C@H]1O [ADP],26.3 ± 5.1 µM,–
Nc1ncnc2c1ncn2[C@@H]1O[C@H](COP(=O)(O)OP(=O)(O)OP(=O)(O)O)[C@@H](O)[C@H]1O [ATP],–,89 ± 25 µM

# From PMC1382195 (The Journal of General Physiology, 2005)
